{
  "source": "patent US10995068B2",
  "about": "“Synthetic sphingolipid-like molecules, drugs, methods of their synthesis and methods of treatment” (The Regents of the University of California, priority 2015, dated 2021)",
  "key": {"[1]": {"system": "Pancreas (PANC-1) cancer cell line", "experiment": "IC50 in cancer cell lines (Table 3), pancreas", "type": "cell-based, human", "settings": "Mean ± SEM, n ≥ 3", "description": "(§1) Having observed a suitable potency of some embodiments of the invention, including, at least with compounds 3-6, 14 in prostate cancer cell lines, other cancer cell lines were tested with these compounds. […] Compounds that were active in prostate cancer cell lines also killed BCR-Abl-positive leukemia cells with similar potency to FTY720.\n(§2) Cell culture studies: Sup-B15 cells are maintained at 2-3 million/mL in RPMI 1640 (Mediatech) supplemented with 10% fetal calf serum (FCS, Sigma-Aldrich), 10 mM Hepes (Mediatech), 55 μM β-mercaptoethanol (Sigma-Aldrich), 2 mM L-glutamine (Mediatech), and antibiotics. All adherent cells are maintained at 70-80% confluence. Cell are cultured in the following media: PC3 & A549, Ham's F12K (Corning Cell Gro) supplemented with 10% FCS and antibiotics; DU145 cells, MEM (Corning Cell Gro) supplemented with 10% FCS, 1 mM sodium pyruvate (Mediatech), and antibiotics; SW620 & MDA-MB-231, DMEM (Corning Cell Gro) with 10% FCS, 1 mM sodium pyruvate (Mediatech), and antibiotics; Panc-1 cells, DMEM (Corning Cell Gro) supplemented with 10% FCS and antibiotics. All of the above cell lines are available from the ATCC.\n(§3) Viability assays: Cell Titer Glo assays (Cell Titer Glo Luminescent Cell Viability Assay kit, cat #G7571, Promega Corporation) are performed in clear bottom 96-well black cell culture plates (cat #655090, Greiner Bio-One, NC, USA). After plating at 1,000 cells/well in volume of 100 μl, cells are left undisturbed for at least 24 h before drug addition. After 72 h, cells are prepared for analysis by adding 10 μl of 0.1% Triton-X100 in PBS with shaking for 1 min at room temperature (RT). Cell Titer-Glo cell lysis reagent (20 μl) is then added followed by 1 min of shaking and a 10 min incubation in the dark at RT. Luminescence is detected using an IVIS imaging system (IVIS Lumina II, Perkin Elmer, USA). […] IC50s are determined using GraphPad Prism (GraphPad Software, Inc, La Jolla, Calif.). SupB-15 viability was determined by flow cytometry. Cell Titer Glo assays were performed with the other cell lines."}, "S1P receptor 3": {"molecular_target": "T1, S1P receptor 3 (Homo sapiens, UniProt Q99500)", "T1 construct": "expressed in transfected cells", "T1 sequence (Q99500 whole entry)": "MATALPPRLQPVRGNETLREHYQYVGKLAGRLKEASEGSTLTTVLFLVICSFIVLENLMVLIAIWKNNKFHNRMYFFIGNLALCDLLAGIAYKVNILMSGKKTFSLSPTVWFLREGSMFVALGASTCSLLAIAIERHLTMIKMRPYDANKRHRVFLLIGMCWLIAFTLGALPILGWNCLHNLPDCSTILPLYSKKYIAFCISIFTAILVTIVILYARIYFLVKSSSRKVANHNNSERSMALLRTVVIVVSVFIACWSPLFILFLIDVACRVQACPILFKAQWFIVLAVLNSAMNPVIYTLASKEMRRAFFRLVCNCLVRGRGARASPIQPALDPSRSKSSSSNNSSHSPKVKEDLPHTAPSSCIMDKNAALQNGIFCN", "experiment": "S1P receptor activation in CHO cells, S1P3", "type": "cell-based", "settings": "CHO cells over-expressing human S1P3", "source_text": "(§4) Phosphorylation may have effects on S1P receptor activity that could cause bradycardia. Bradycardia, the dose-limiting toxicity that prevents the use of FTY720 in cancer patients, stems from FTY720-P's actions on S1P receptors 1 and 3. (Camm, J., et al. (2014) Am. Heart J. 168, 632-644; Cohen, J. A., Chun, J. (2011) Ann. Neurol. 69, 759-777; Sanna, M. G., et al. (2004) J. Biol. Chem. 279, 13839-13848; the disclosures of which are incorporated herein by reference). Phosphorylation by sphingosine kinase may make compounds competent to activate S1P receptors. FTY720, for example, when phosphorylated is known to activate S1P receptors 1 and 3. Because compound 5 could be phosphorylated, the activity of compound 5 and its phosphate 5-P (FIG. 28) on S1P receptors was evaluated (FIG. 32).\n(§5) 51P1-5 activation: Chinese hamster ovary (CHO) cells stably over-expressing the different human 51P receptor subtypes are used. S1P1, S1P4 and S1P5 overexpressing CHO cells are cultured in medium containing alpha-MEM supplemented with 10% FBS, 50 μg/ml gentamycin and 0.5 mg/ml G418. S1P2 and S1P3 overexpressing CHO cells are cultured in RPMI containing 10% FBS, 50 μg/ml gentamycin and 0.5 mg/ml G418. Prior to stimulation, cells are rendered serum-free for 24 h. Stimulation is carried out for 10 min in serum-free DMEM containing 0.1 mg/ml of fatty-acid free BSA in the absence or presence of the various compounds or 51P. Protein lysates are prepared using a buffer containing (50 mM Tris pH 7.4, 150 mM NaCl, 10% glycerol, 1% Triton X-100, 2 mM EDTA, 2 mM EGTA, 40 mM β-glycerophosphate, 50 mM sodium fluoride, 10 mM sodium pyrophosphate, 2 mM dithiothreitol, 0.2 mM sodium orthovanadate). Cells are homogenized by one 5 sec burst in a MSE Ultrasonic Disintegrator, centrifuged and taken for protein determination. Equal amounts of protein are separated by SDS-PAGE (10% polyacrylamide gel), transferred to nitrocellulose membranes and subjected to Western blot analysis. Bands were stained using IRDye® secondary antibodies and visualized by the LICOR Odyssey® Fc Imaging system. Antibodies against phospho-Thr202/Tyr204-p42/p44-MAPK and phospho-Ser PKC substrate are from Cell Signaling, Frankfurt am Main, Germany. Polyclonal antisera against total p42 and total p44 were generated and characterized as previously described. (Huwiler, A.; Pfeilschifter, J. Br. J. Pharmacol. 1994, 113, 1455-1463; disclosure of which is incorporated herein by reference)."}, "[2]": {"system": "Lung (A-549) cancer cell line", "experiment": "IC50 in cancer cell lines (Table 3), lung", "type": "cell-based, human", "settings": "Mean ± SEM, n ≥ 3", "description": "as §1, §2, §3"}, "[3]": {"system": "PC3 prostate cancer cells", "experiment": "Cell viability by vital dye exclusion and flow cytometry in PC3", "type": "cell-based, human", "settings": "vital dye exclusion (DAPI) and flow cytometry, 72 h", "description": "Thus, to determine whether analogues in accordance with embodiments of the invention are cytotoxic, studies were conducted using vital dye exclusion and flow cytometry (Table 2).\nas §3"}, "[4]": {"system": "PC3 prostate cancer cells", "experiment": "Cell Titer Glo proliferation assay in PC3", "type": "cell-based, human", "settings": "Cell Titer Glo, 72 h; Mean ± SEM, n ≥ 3; read-out: IC50 values in prostate cancer cell lines, PC3", "description": "(§6) Previously presented compounds 1-4 (FIG. 23), compounds 5-8 (FIG. 28), and control compound FTY720 (FIG. 2) were used to treat the well-established PC3 and DU145 prostate cancer lines (FIG. 29 and Table 1). A Cell Titer Glo assay was performed to measure proliferation of the cancer lines.\nas §2, §3"}, "S1P receptor 5": {"molecular_target": "T2, S1P receptor 5 (Homo sapiens, UniProt Q9H228)", "T2 construct": "expressed in transfected cells", "T2 sequence (Q9H228 whole entry)": "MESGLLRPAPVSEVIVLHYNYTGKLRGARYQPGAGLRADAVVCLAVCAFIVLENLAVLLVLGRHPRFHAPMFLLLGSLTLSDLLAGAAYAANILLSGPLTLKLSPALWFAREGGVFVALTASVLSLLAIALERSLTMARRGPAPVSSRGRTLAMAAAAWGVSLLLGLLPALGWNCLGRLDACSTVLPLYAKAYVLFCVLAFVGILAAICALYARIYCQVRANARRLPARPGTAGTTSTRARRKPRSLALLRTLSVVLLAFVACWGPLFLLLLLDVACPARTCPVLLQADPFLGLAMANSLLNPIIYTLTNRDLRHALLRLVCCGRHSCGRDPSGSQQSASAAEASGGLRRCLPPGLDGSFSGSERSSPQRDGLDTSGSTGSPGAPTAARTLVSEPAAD", "experiment": "S1P receptor activation in CHO cells, S1P5", "type": "cell-based", "settings": "CHO cells over-expressing human S1P5", "source_text": "as §4, §5"}, "Leukemia (SupB-15) cells": {"system": "Leukemia (SupB-15) cells", "experiment": "IC50 in cancer cell lines (Table 3), leukemia", "type": "cell-based, human", "settings": "flow cytometry; Mean ± SEM, n ≥ 3", "description": "as §1, §2, §3"}, "S1P receptor 4": {"molecular_target": "T3, S1P receptor 4 (Homo sapiens, UniProt O95977)", "T3 construct": "expressed in transfected cells", "T3 sequence (O95977 1-384)": "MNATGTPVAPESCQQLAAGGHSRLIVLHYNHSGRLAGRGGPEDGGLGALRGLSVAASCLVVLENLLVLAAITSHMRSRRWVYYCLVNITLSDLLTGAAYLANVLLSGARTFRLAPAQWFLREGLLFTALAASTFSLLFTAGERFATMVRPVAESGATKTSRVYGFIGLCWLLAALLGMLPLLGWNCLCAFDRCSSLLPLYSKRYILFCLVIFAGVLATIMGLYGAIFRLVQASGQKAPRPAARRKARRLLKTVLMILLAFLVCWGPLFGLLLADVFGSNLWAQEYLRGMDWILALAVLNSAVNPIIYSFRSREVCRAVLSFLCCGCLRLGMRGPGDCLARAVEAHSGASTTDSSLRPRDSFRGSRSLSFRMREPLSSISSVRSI", "experiment": "S1P receptor activation in CHO cells, S1P4", "type": "cell-based", "settings": "CHO cells over-expressing human S1P4", "source_text": "as §4, §5"}, "S1P receptor 2": {"molecular_target": "T4, S1P receptor 2 (Homo sapiens, UniProt O95136)", "T4 construct": "expressed in transfected cells", "T4 sequence (O95136 whole entry)": "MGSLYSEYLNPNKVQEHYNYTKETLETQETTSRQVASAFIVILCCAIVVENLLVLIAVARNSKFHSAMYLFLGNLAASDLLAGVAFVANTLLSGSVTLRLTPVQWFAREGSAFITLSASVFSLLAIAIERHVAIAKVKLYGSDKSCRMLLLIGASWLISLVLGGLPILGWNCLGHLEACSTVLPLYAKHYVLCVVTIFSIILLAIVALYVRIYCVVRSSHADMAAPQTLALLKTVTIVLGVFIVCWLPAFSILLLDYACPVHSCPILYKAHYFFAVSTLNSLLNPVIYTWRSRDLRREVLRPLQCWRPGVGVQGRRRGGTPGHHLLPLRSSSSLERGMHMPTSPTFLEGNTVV", "experiment": "S1P receptor activation in CHO cells, S1P2", "type": "cell-based", "settings": "CHO cells over-expressing human S1P2", "source_text": "as §4, §5"}, "S1P receptor 1": {"molecular_target": "T5, S1P receptor 1 (Homo sapiens, UniProt P21453)", "T5 construct": "expressed in transfected cells", "T5 sequence (P21453 whole entry)": "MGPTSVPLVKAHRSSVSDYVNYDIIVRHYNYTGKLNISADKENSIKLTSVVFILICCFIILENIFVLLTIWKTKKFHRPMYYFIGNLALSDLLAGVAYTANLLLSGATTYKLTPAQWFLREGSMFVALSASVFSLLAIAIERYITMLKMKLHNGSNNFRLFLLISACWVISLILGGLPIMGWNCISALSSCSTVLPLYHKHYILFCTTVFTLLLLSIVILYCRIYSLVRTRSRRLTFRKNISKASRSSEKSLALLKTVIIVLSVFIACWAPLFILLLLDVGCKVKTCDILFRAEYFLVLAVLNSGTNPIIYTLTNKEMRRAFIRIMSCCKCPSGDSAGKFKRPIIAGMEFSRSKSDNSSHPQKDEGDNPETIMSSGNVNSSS", "experiment": "S1P receptor activation in CHO cells, S1P1", "type": "cell-based", "settings": "CHO cells over-expressing human S1P1, 10 min stimulation, Western blot", "source_text": "as §4, §5"}, "[5]": {"system": "Colon (SW-620) cancer cell line", "experiment": "IC50 in cancer cell lines (Table 3), colon", "type": "cell-based, human", "settings": "Mean ± SEM, n ≥ 3", "description": "as §1, §2, §3"}, "[6]": {"system": "Breast (MDA-MB-231) cancer cell line", "experiment": "IC50 in cancer cell lines (Table 3), breast", "type": "cell-based, human", "settings": "Mean ± SEM, n ≥ 3", "description": "as §1, §2, §3"}, "[7]": {"system": "DU145 prostate cancer cells", "experiment": "Cell Titer Glo proliferation assay in DU145", "type": "cell-based, human", "settings": "72 h, Mean ± SEM, n ≥ 3, read-out: IC50 values in prostate cancer cell lines, DU145", "description": "as §6, §2, §3"}},
  "data": [
    {"compound": "CCCCCCCCc1ccc([C@@H]2CCN[C@H]2COC)cc1.Cl", "note": "[Compound 14]", "values": [
      {"measurement": "IC50", "setting": "[1]", "value": "4.8 ± 0.6", "unit": "µM"},
      {"measurement": "activation of S1P receptor 3", "setting": "S1P receptor 3", "value": "not able to activate"},
      {"measurement": "IC50", "setting": "[2]", "value": "7.8 ± 1.8", "unit": "µM"},
      {"measurement": "IC50", "setting": "[3]", "value": "4.6 ± 0.4", "unit": "µM"},
      {"measurement": "IC50", "setting": "[4]", "value": "1.9 ± 0.3", "unit": "µM"},
      {"measurement": "activation of S1P receptor 5", "setting": "S1P receptor 5", "value": "not able to activate"},
      {"measurement": "IC50", "setting": "Leukemia (SupB-15) cells", "value": "7.5 ± 0.4", "unit": "µM"},
      {"measurement": "activation of S1P receptor 4", "setting": "S1P receptor 4", "value": "not able to activate"},
      {"measurement": "activation of S1P receptor 2", "setting": "S1P receptor 2", "value": "not able to activate"},
      {"measurement": "activation of S1P receptor 1", "setting": "S1P receptor 1", "value": "not able to activate"},
      {"measurement": "IC50", "setting": "[5]", "value": "2.7 ± 0.2", "unit": "µM"},
      {"measurement": "IC50", "setting": "[6]", "value": 4, "unit": "µM"},
      {"measurement": "IC50", "setting": "[7]", "value": "5.6 ± 0.1", "unit": "µM"}
    ]}
  ]
}
